# In US20210252047A1, “USE OF HALOGEN COMPOUNDS FOR THE TREATMENT AND PREVENTION OF TISSUE INJURY AND POST-INTENSIVE CARE SYNDROME” (Faraday Pharmaceuticals, Inc., priority 2018, published 2021):
# Legend:
# [1] = test system: mice subjected to bilateral hind limb ischemia; experiment: Hind limb ischemia survival, Study C (3 hours ischemia, i.v. bolus); type: in vivo, C57Bl/6 mice
# Method: (§1) A bilateral hind-limb ischemia model was used to induce systemic inflammation. Male C57Bl/6 mice (7-10 weeks old) were subjected to 2 hours of bilateral hind limb ischemia followed by 3 hours of reperfusion. Ischemia was induced by application of latex o-rings above the greater trochanter using a McGivney Hemorrhoidal ligator. After 3 hours of reperfusion, the plasma was analyzed for levels of creatine kinase (CK), or other markers of organ injury: blood urea nitrogen (BUN), alanine aminotransferase (ALT), and aspartate aminotransferase (AST).
# The model used to evaluate survival was similar to that previously described for Study A; however, the time of ischemia was increased to 3 hours. The time from reperfusion to death was monitored for the next 2 months.
# A 1 mg/kg bolus of sodium iodide was administered intravenously (i.v.) by the retro orbital (r.o.) route 5 minutes prior to reperfusion of the hind limbs.
# [2] = test system: mice subjected to hindlimb ischemia reperfusion injury; experiment: Hindlimb ischemia reperfusion injury (2 hours ischemia, 3 hours reperfusion), Example 1; type: in vivo, C57BL/6 mice
# Method: Anesthetized adult male C57BL/6 mice were subjected to hindlimb ischemia reperfusion injury (bilateral leg tourniquets for 2 hours (ischemia) followed by 3 hours of reperfusion after tourniquet removal). To determine whether exogenous iodide could reduce damage to heart and lung tissue caused by the ischemia reperfusion injury, various doses of iodide (0 mg/kg, 1 mg/kg, 10 mg/kg or 20 mg/kg) were administered intravenously (i.v.) by the retro orbital (r.o.) to the animals 5 minutes prior to reperfusion of the hind limb.
# The animals were then sacrificed and blood (plasma) and lung and GC muscle samples obtained. The blood (plasma) samples were assayed to determine the concentrations of creatine kinase and cardiac troponin present in each. In addition, the amount of edema present in the lung and GC muscle was determined as wet weight/dry weight.
# [3] = test system: mice subject to bilateral hind limb ischemia (HLI); experiment: Hind limb ischemia (HLI) cytokine levels in muscle and plasma, Example 3; type: in vivo, C56Bl/6 mice; details: 24 hours after reperfusion
# Method: A mouse model of hind limb ischemia was utilized to induce intramuscular and systemic inflammation. Male C56Bl/6 mice˜7-10 weeks old were subject to bilateral hind limb ischemia (HLI) by placing an O-ring on both hind limbs for 2.5 hours. Five minutes prior to reperfusion an intravenous bolus of sodium iodide (NaI; FDY-5301) at a concentration of 1 mg/kg was delivered. Vehicle treated animals received an i.v. bolus of saline. After i.v. delivery, at the 2.5 hour mark, the O-rings were cut off and removed to allow for tissue reperfusion. The mice were sacrificed 24 hours following reperfusion. Upon sacrifice, whole blood was removed (plasma was then separated and frozen at −80° C.), the gastronemius muscle was removed and snap frozen in liquid nitrogen and then stored at −80° C. The cytokines were evaluated on a MAGPIX® instrument (Luminex Corp) using a custom multiplex assay kit from MilliporeSigma (MCYTOMAG-70K-09, containing: INF-γ, IL-18, IL-2, IL-6, IL-10, KC, LIX, MIP-2 & TNF-α.
# [4] = test system: mice subjected to bilateral hind limb ischemia; experiment: Bilateral hind-limb ischemia model of systemic inflammation, Study A (2 hours ischemia, 3 hours reperfusion); type: in vivo, C57Bl/6 mice; details: after 3 hours of reperfusion
# Method: as §1
# A 1, 3, 10, or 20 mg/kg bolus of sodium iodide was administered intravenously (i.v.) by the retro orbital (r.o.) route 5 minutes prior to reperfusion of the hind limbs.
# [5] = test system: mice subjected to bilateral hind limb ischemia; experiment: Hind limb ischemia survival, Study B (2.5 hours ischemia, NaI in drinking water); type: in vivo, C57Bl/6 mice
# Method: as §1
# The model used to evaluate survival was similar to that previously described for Study A; however, the time of ischemia was increased to 2.5 hours. The time from reperfusion to death was monitored for the next 24 hours.
# The drinking water of the mice was supplemented with 84 μM NaI and the mice were allowed ad libitium access (p.o.) to this water for >5 days prior to hind limb ischemia.
# [6] = i.v. administration 5 minutes prior to reperfusion, FIG. 2
# [7] = 1 mg/kg i.v. bolus 5 minutes prior to reperfusion, 2.5 h ischemia, p<0.05, FIG. 7
compound,measurement,setting,value
[I-].[Na+] [sodium iodide],survival compared to vehicle administration,[1]; 1 mg/kg i.v. bolus 5 minutes prior to reperfusion,increased
same,animals alive after 72 hours,"[1]; 1 mg/kg i.v. bolus 5 minutes prior to reperfusion, vehicle 0%, FIG. 6A",20%
same,further survival of the animals alive after 72 hours (study ended at this point),"[1]; 1 mg/kg i.v. bolus, FIG. 6B",≥ 2 months
same,plasma CK (creatine kinase) levels compared to vehicle,"[2]; 1 mg/kg, 10 mg/kg or 20 mg/kg i.v. (retro orbital) 5 minutes prior to reperfusion, 2 h ischemia, 3 h reperfusion, FIG. 1A",significantly reduced
same,level of cardiac troponin,"[2]; 10 mg/kg i.v. 5 minutes prior to reperfusion, plasma, 2 h ischemia, 3 h reperfusion, FIG. 1B",significantly reduced
same,"muscle edema (gastrocnemius), wet weight/dry weight",[2]; [6],reduced
same,"pulmonary edema (lung), wet weight/dry weight",[2]; [6],reduced
same,plasma IL-6,"[3]; 1 mg/kg i.v. bolus 5 minutes prior to reperfusion, 2.5 h ischemia, FIG. 8",significant reduction
same,IL-6 in muscle tissue,[3]; [7],significant reduction
same,IL-10 in muscle tissue,[3]; [7],significant reduction
same,KC in muscle tissue,[3]; [7],significant reduction
same,MIP-2 in muscle tissue,[3]; [7],significant reduction
same,"inflammation, heat map of all cytokines assessed in muscle or plasma","[3]; 1 mg/kg i.v. bolus, FIGS. 9 and 10",overall reduction
same,cytokine levels in plasma,[3]; FIG. 8,significantly reduced
same,"cytokine levels in muscle tissue (IL-6, IL-10, CXCL1 or KC, MIP-2)",[3]; FIGS. 7A-7D,significantly reduced
same,plasma CK levels compared to vehicle,"[4]; 1 mg/kg i.v. bolus 5 minutes prior to reperfusion, FIG. 3",significantly reduced
same,plasma level of blood urea nitrogen (BUN),"[4]; 1, 3, 10 or 20 mg/kg i.v. bolus 5 minutes prior to reperfusion, FIG. 4A",reduced
same,plasma level of alanine aminotransferase (ALT),"[4]; 1, 3, 10 or 20 mg/kg i.v. bolus 5 minutes prior to reperfusion, FIG. 4B",reduced
same,plasma level of aspartate aminotransferase (AST),"[4]; 1, 3, 10 or 20 mg/kg i.v. bolus 5 minutes prior to reperfusion, FIG. 4C",reduced
same,animals alive at 24 hours,"[5]; 84 μM in drinking water (p.o.) >5 days prior to ischemia, vehicle 50%",90%
same,survival compared to vehicle,"[5]; 84 μM in drinking water ad libitum (p.o.) >5 days prior to ischemia, monitored 24 hours, FIG. 5",significantly increased
